Target: MAPK14 (human) (UniProt Q16539)
Assay: Inhibition of LPS Stimulated TNF Production by U937 Cells
Conditions: concentration not given here

Sequence of MAPK14 (human) (Q16539 whole entry, looked up): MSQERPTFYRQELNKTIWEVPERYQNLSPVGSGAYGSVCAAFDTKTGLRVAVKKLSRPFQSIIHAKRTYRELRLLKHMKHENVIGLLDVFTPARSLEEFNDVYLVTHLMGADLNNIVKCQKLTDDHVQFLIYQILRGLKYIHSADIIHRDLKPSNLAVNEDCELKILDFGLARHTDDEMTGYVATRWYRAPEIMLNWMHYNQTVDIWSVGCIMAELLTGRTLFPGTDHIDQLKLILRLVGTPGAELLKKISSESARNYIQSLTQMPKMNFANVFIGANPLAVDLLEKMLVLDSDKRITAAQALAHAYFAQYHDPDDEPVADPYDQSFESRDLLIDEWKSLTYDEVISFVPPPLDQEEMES

inhibition | Structure (SMILES)
45% | C[C@H](NC(=O)c1cc(F)cc(F)c1)c1[nH]nc(-c2ccc(F)cc2)c1-c1ccncc1
36% | CCOC(=O)C(NC(=O)NCCc1[nH]nc(-c2ccc(F)cc2)c1-c1ccncc1)C(C)C (stereo unspecified)
37% | O=C(NCCc1[nH]nc(-c2ccc(F)cc2)c1-c1ccncc1)N1CCCC1

Target: MAPK14 (human) (UniProt Q16539)
Assay: Inhibition of MAPK14 Kinase Activity by PHAS-I Assay
Conditions: not given

IC50 | Structure (SMILES)
62 nM | C[C@H](NC(=O)c1cc(F)cc(F)c1)c1[nH]nc(-c2ccc(F)cc2)c1-c1ccncc1
< 100 nM | COc1ccccc1C(=O)N1CCC(c2[nH]nc(-c3ccc(F)cc3)c2-c2ccncc2)CC1
110 nM | Clc1ccc(-c2n[nH]c(SCOC3CCCCO3)c2-c2ccncc2)cc1 (stereo unspecified)
460 nM | CC(=O)N[C@@H](C)c1[nH]nc(-c2ccc(F)cc2)c1-c1ccncc1
21000 nM | O=C(Nc1ccccc1F)N[C@H](Cc1ccccc1)c1[nH]nc(-c2ccc(F)cc2)c1-c1ccncc1
2600 nM | O=C(Nc1ccccc1)N[C@@H](Cc1ccccc1)c1[nH]nc(-c2ccc(F)cc2)c1-c1ccncc1
910 nM | C[C@@H](NC(=O)NCc1[nH]nc(-c2ccc(F)cc2)c1-c1ccncc1)c1ccccc1

Same assay, conditions: concentration not given here

inhibition | Structure (SMILES)
79% | CCOC(=O)C(NC(=O)NCCc1[nH]nc(-c2ccc(F)cc2)c1-c1ccncc1)C(C)C (stereo unspecified)
76% | O=C(NCCc1[nH]nc(-c2ccc(F)cc2)c1-c1ccncc1)N1CCCC1
87% | CCCCS(=O)(=O)NCCCc1[nH]nc(-c2ccc(F)cc2)c1-c1ccncc1
84% | Cc1ccc(C)c(C(=O)c2ccccc2NC(=O)Cn2nc(-c3ccc(F)cc3)c(-c3ccncc3)c2C)c1
77% | O=C(NCCCc1[nH]nc(-c2ccc(F)cc2)c1-c1ccncc1)c1ccncc1
82% | Cc1c(-c2ccncc2)c(-c2ccc(F)cc2)nn1CC(=O)Nc1cccc(SC(F)(F)F)c1
45% | Cc1c(-c2ccncc2)c(-c2ccc(F)cc2)nn1CC(=O)NC1CCCCC1C1CCCCC1 (stereo unspecified)
75% | Cc1c(-c2ccncc2)c(-c2ccc(F)cc2)nn1CC(=O)Nc1ccc(OCCOc2ccccc2)cc1
32% | Cc1c(-c2ccncc2)c(-c2ccc(F)cc2)nn1CC(=O)N(C)CCc1ccccc1
66% | CC(=O)Nc1ccc(S(=O)(=O)NCc2[nH]nc(-c3ccc(F)cc3)c2-c2ccncc2)cc1
77% | O=C(NCCCc1[nH]nc(-c2ccc(F)cc2)c1-c1ccncc1)C1CC1
66% | O=C(NCCCc1[nH]nc(-c2ccc(F)cc2)c1-c1ccncc1)c1ccc(I)cc1
63% | COCCN(CC1CCCCC1)C(=O)Cn1nc(-c2ccc(F)cc2)c(-c2ccncc2)c1C
81% | O=C(NCCCc1[nH]nc(-c2ccc(F)cc2)c1-c1ccncc1)Nc1ccccc1
90% | CCCOC(=O)NCCCc1[nH]nc(-c2ccc(F)cc2)c1-c1ccncc1
34% | CCOC(=O)CN(Cc1ccccn1)C(=O)Cn1nc(-c2ccc(F)cc2)c(-c2ccncc2)c1C
92% | Cc1c(-c2ccncc2)c(-c2ccc(F)cc2)nn1CC(=O)Nc1ccccc1Cc1ccccc1
70% | O=C(NCCCc1[nH]nc(-c2ccc(F)cc2)c1-c1ccncc1)c1cccc(Br)c1
89% | CC(C)OC(=O)NCCCc1[nH]nc(-c2ccc(F)cc2)c1-c1ccncc1
37% | CCOC(=O)C[C@H](NC(=O)Cn1nc(-c2ccc(F)cc2)c(-c2ccncc2)c1C)C(=O)OCC
68% | Cc1ccc(S(=O)(=O)NCCCc2[nH]nc(-c3ccc(F)cc3)c2-c2ccncc2)cc1
72% | CCOC(=O)N1CCC(NC(=O)Cn2nc(-c3ccc(F)cc3)c(-c3ccncc3)c2C)CC1

inhibition | Structure (SMILES)
86% | Cc1ccc(C(=O)NCCCc2[nH]nc(-c3ccc(F)cc3)c2-c2ccncc2)cc1
94% | Cc1c(-c2ccncc2)c(-c2ccc(F)cc2)nn1CC(=O)Nc1ccccc1C(C)C
69% | Cc1c(-c2ccncc2)c(-c2ccc(F)cc2)nn1CC(=O)NC1CCSC1=O (stereo unspecified)
92% | COc1cccc(CC(=O)NCCCc2[nH]nc(-c3ccc(F)cc3)c2-c2ccncc2)c1
86% | Cc1cccc(NC(=O)Cn2nc(-c3ccc(F)cc3)c(-c3ccncc3)c2C)c1
86% | C=CCOC(=O)NCCc1[nH]nc(-c2ccc(F)cc2)c1-c1ccncc1
75% | Cc1c(-c2ccncc2)c(-c2ccc(F)cc2)nn1CC(=O)Nc1cc(F)cc(F)c1
75% | CC(C)C(=O)NCCc1[nH]nc(-c2ccc(F)cc2)c1-c1ccncc1
80% | O=C(NCCCc1[nH]nc(-c2ccc(F)cc2)c1-c1ccncc1)c1ccc(F)c(F)c1F
72% | O=C(NCCCc1[nH]nc(-c2ccc(F)cc2)c1-c1ccncc1)c1cccnc1
84% | O=S(=O)(NCCCc1[nH]nc(-c2ccc(F)cc2)c1-c1ccncc1)c1cccs1
86% | Cc1c(-c2ccncc2)c(-c2ccc(F)cc2)nn1CC(=O)Nc1ccccc1F
89% | Cc1c(-c2ccncc2)c(-c2ccc(F)cc2)nn1CC(=O)Nc1c(Cl)cccc1Cl
95% | CCS(=O)(=O)NCCCc1[nH]nc(-c2ccc(F)cc2)c1-c1ccncc1
49% | Cc1c(-c2ccncc2)c(-c2ccc(F)cc2)nn1CC(=O)NC1CCCCC1
87% | C=CCNC(=O)NCCCc1[nH]nc(-c2ccc(F)cc2)c1-c1ccncc1
77% | CCCCNS(=O)(=O)c1cccc(NC(=O)Cn2nc(-c3ccc(F)cc3)c(-c3ccncc3)c2C)c1
87% | Cc1c(-c2ccncc2)c(-c2ccc(F)cc2)nn1CC(=O)Nc1ccc(-n2ccc(C(F)(F)F)n2)cc1
88% | Cc1c(-c2ccncc2)c(-c2ccc(F)cc2)nn1CC(=O)Nc1cccc(Br)c1
88% | O=C(NCCCc1[nH]nc(-c2ccc(F)cc2)c1-c1ccncc1)Nc1ccc(F)cc1
82% | COc1ccc(NC(=O)NCCCc2[nH]nc(-c3ccc(F)cc3)c2-c2ccncc2)cc1
81% | Cc1c(-c2ccncc2)c(-c2ccc(F)cc2)nn1CC(=O)NC1CCC1

inhibition | Structure (SMILES)
68% | O=C(NCCCc1[nH]nc(-c2ccc(F)cc2)c1-c1ccncc1)c1cnc2ccccc2n1
70% | Cc1c(-c2ccncc2)c(-c2ccc(F)cc2)nn1CC(=O)NC1CCN(Cc2ccccc2)CC1
70% | Cc1c(-c2ccncc2)c(-c2ccc(F)cc2)nn1CC(=O)N1CCOCC1
74% | CC(=O)OC(C)(C)C(=O)NCCCc1[nH]nc(-c2ccc(F)cc2)c1-c1ccncc1
71% | Cc1c(-c2ccncc2)c(-c2ccc(F)cc2)nn1CC(=O)NC(C)c1ccc(Br)cc1 (stereo unspecified)
80% | Cc1c(-c2ccncc2)c(-c2ccc(F)cc2)nn1CC(=O)Nc1ccccc1SCCCc1ccccc1
78% | CCCOC(=O)NCCc1[nH]nc(-c2ccc(F)cc2)c1-c1ccncc1
76% | CN(C(=O)NCCCc1[nH]nc(-c2ccc(F)cc2)c1-c1ccncc1)c1ccccc1
67% | Cc1c(-c2ccncc2)c(-c2ccc(F)cc2)nn1CC(=O)Nc1ccc(CSc2ccc(Cl)cc2)cc1
86% | Cc1c(-c2ccncc2)c(-c2ccc(F)cc2)nn1CC(=O)Nc1ccccc1C(F)(F)F
75% | Cc1c(-c2ccncc2)c(-c2ccc(F)cc2)nn1CC(=O)NC1CC1
84% | CNC(=O)NCCCc1[nH]nc(-c2ccc(F)cc2)c1-c1ccncc1
76% | CC(C)COC(=O)NCCCc1[nH]nc(-c2ccc(F)cc2)c1-c1ccncc1
65% | CCN1CCN(C(=O)Cn2nc(-c3ccc(F)cc3)c(-c3ccncc3)c2C)CC1
73% | Cc1c(-c2ccncc2)c(-c2ccc(F)cc2)nn1CC(=O)N1CCCC1
86% | Cc1c(-c2ccncc2)c(-c2ccc(F)cc2)nn1CC(=O)Nc1ccccc1C(=O)NC(C)c1ccccc1 (stereo unspecified)
90% | NC(=O)NCCCc1[nH]nc(-c2ccc(F)cc2)c1-c1ccncc1
86% | COc1ccc2nc(NC(=O)Cn3nc(-c4ccc(F)cc4)c(-c4ccncc4)c3C)sc2c1
78% | O=C(NCCCc1[nH]nc(-c2ccc(F)cc2)c1-c1ccncc1)c1ccccc1
90% | Cc1c(-c2ccncc2)c(-c2ccc(F)cc2)nn1CC(=O)Nc1cc([N+](=O)[O-])cc([N+](=O)[O-])c1
81% | CC(=O)N1CCN(C(=O)Cn2nc(-c3ccc(F)cc3)c(-c3ccncc3)c2C)CC1
82% | O=C(NCCCc1[nH]nc(-c2ccc(F)cc2)c1-c1ccncc1)NCCc1ccccc1

inhibition | Structure (SMILES)
43% | CCOC(=O)CC(C)NC(=O)Cn1nc(-c2ccc(F)cc2)c(-c2ccncc2)c1C (stereo unspecified)
84% | CS(=O)(=O)NCCCc1[nH]nc(-c2ccc(F)cc2)c1-c1ccncc1
19% | COC(=O)[C@@H](Cc1cn(C)cn1)NC(=O)Cn1nc(-c2ccc(F)cc2)c(-c2ccncc2)c1C
35% | COCCN(C)C(=O)Cn1nc(-c2ccc(F)cc2)c(-c2ccncc2)c1C
86% | Cc1c(-c2ccncc2)c(-c2ccc(F)cc2)nn1CC(=O)Nc1ccccc1Oc1ccc(Cl)cc1
69% | O=C(NCCCc1[nH]nc(-c2ccc(F)cc2)c1-c1ccncc1)c1ccccn1
34% | Cc1c(-c2ccncc2)c(-c2ccc(F)cc2)nn1CC(=O)NCC(=O)OC(C)(C)C
79% | Cc1c(-c2ccncc2)c(-c2ccc(F)cc2)nn1CC(=O)Nc1cc(C(F)(F)F)cc(C(F)(F)F)c1
47% | COC(=O)[C@H](CC(C)C)NC(=O)Cn1nc(-c2ccc(F)cc2)c(-c2ccncc2)c1C
82% | Cc1c(-c2ccncc2)c(-c2ccc(F)cc2)nn1CC(=O)Nc1ccc(OCc2ccccc2)cc1
75% | COC(=O)C(Cc1ccc([N+](=O)[O-])cc1)NC(=O)Cn1nc(-c2ccc(F)cc2)c(-c2ccncc2)c1C (stereo unspecified)
56% | Cc1cccc(C)c1NC(=O)NCCc1[nH]nc(-c2ccc(F)cc2)c1-c1ccncc1
79% | CC(C)C(=O)NCCCc1[nH]nc(-c2ccc(F)cc2)c1-c1ccncc1
88% | Cc1cccc(C)c1NC(=O)NCCCc1[nH]nc(-c2ccc(F)cc2)c1-c1ccncc1
85% | CC(C)OC(=O)NCCc1[nH]nc(-c2ccc(F)cc2)c1-c1ccncc1
72% | COc1ccc(CCN(CCC#N)C(=O)Cn2nc(-c3ccc(F)cc3)c(-c3ccncc3)c2C)cc1OC
49% | COc1ccc(NC(=O)NCCc2[nH]nc(-c3ccc(F)cc3)c2-c2ccncc2)c(OC)c1
46% | CCN(CC)CC(C)NC(=O)Cn1nc(-c2ccc(F)cc2)c(-c2ccncc2)c1C (stereo unspecified)
43% | Cc1c(-c2ccncc2)c(-c2ccc(F)cc2)nn1CC(=O)N(CCc1ccccc1)CCc1ccccn1
80% | CCCCCCOc1ccc(NC(=O)Cn2nc(-c3ccc(F)cc3)c(-c3ccncc3)c2C)cc1
